Results taken from US20060009428A1, “Cyclic progestin regimens and kits” (Wyeth, priority 2004, published 2006).
Values joined by “and” are separate entries in the source; they are usually repeats but may differ in a detail not shown here. Equal entries are not always repeated.

Legend:
Assay type in all cases: in vivo
[1] = system: ovulation in adult female rats; test: Rat ovulation inhibition assay; conditions: po, once daily for 4 days, Sprague-Dawley rats
Description: The ovulation inhibition assay measures a compound's ability to inhibit ovulation in adult female rats. This activity is essential for contraceptive efficacy.
Random cycling mature female Sprague-Dawley rats (˜200 g) were obtained from Charles River Laboratory (Boston, Mass.). Rats were synchronized for estrus with 2 μg of LHRH (in phosphate buffered saline containing 0.1% bovine serum albumin) administered subcutaneously (sc) per rat at 0900 h and again at 1600 h. Animals were allowed to rest for 8 days before the administration of test compounds. Animals were then grouped, with 7 to 9 rats per treatment group. The morning of the ninth day following LHRH treatment, the rats were treated with test compounds once daily, by gavage. This continued for 4 consecutive days. The animals were euthanized the morning following the last treatment. Oviducts were removed, placed between 2 glass slides, and viewed through a dissecting microscope to count ova. The number of animals presenting ova in the oviduct from each treatment group and the number of ova in the oviduct of each animal were recorded.

[2] = system: rabbit endometrial transformation; test: Rabbit endometrial transformation (Clauberg) assay; conditions: for ED50: Oryctolagus cuniculus, 120 h, read-out: Rabbit Clauberg Assay estimated ED50 (AED50)
Description: In addition to the rat progestational models described above, NSP-989 was also evaluated in the Clauberg model, a classic progestational assay in the rabbit endometrial transformation model [McPhail MK, “The assay of progestin.” J Physiol. 1934; 83:145-1567]. Briefly, immature female New Zealand White rabbits (˜1 kg body weight) were injected subcutaneously with 5 μg 17β-estradiol (E2)/rabbit/day for six consecutive days. Beginning 24 hours after the final E2 injection, vehicle alone or test compounds were given orally for (5) five consecutive days. Progestational activity was determined by increases in uterine weight and endometrial glandular arborization (McPhail Index).

progesterone receptor = molecular target: T1, progesterone receptor (Rattus norvegicus, UniProt Q63449); test: Rat uterine decidualization assay in adult ovariectomized rats; conditions: for ED50: rat, read-out: Rat Decidual Assay ED50
T1 construct: the uterine decidualization assay in adult ovariectomized rats; from tissue; host or cells: uterus of live ovariectomized Sprague-Dawley rats (in vivo)
T1 sequence (Q63449 1-923): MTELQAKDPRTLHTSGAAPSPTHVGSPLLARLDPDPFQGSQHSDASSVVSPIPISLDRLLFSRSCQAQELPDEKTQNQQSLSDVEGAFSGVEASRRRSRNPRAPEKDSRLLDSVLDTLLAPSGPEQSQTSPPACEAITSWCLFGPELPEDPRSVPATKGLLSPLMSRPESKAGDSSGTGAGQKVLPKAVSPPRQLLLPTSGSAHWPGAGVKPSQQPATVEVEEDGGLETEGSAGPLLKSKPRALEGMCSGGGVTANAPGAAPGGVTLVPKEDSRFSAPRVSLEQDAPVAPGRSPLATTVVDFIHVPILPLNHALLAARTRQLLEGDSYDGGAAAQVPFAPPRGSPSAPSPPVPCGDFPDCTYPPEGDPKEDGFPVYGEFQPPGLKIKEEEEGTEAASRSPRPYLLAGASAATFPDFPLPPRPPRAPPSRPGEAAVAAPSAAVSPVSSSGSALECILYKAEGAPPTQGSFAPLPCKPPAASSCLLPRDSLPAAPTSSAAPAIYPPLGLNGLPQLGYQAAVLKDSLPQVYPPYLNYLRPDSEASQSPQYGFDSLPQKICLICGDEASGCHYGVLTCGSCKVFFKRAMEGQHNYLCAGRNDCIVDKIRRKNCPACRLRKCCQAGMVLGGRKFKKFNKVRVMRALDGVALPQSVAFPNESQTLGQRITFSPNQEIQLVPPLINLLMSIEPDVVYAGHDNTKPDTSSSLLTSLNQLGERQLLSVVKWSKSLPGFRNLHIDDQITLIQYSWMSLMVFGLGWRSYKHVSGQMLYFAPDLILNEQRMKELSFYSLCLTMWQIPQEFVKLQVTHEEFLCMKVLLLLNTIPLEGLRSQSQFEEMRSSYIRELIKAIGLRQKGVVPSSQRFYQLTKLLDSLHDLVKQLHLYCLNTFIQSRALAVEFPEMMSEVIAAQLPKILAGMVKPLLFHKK
Description: The second rat model to determine progestational activity is the uterine decidualization assay in adult ovariectomized rats.
Briefly, mature female Sprague-Dawley rats (˜220 g) were ovariectomized at least 10 days prior to treatment to reduce circulating sex steroids. […] Approximately 24 hours after the third daily treatment, decidualization was induced in onel uterine horn of each anesthetized rat by scratching the antimesometrial luminal epithelium with a blunt 21-gauge needle. The contralateral horn was not scratched and served as a non-stimulated control. Animals were euthanized by CO2 asphyxiation 24 hoursr following the final treatment. The uteri were removed, and trimmed of fat, and the decidualized (D) and control (C) horns were weighed separately. The decidual response is expressed as D/C.

[3] = system: estrogen-induced C3 expression in the uterine epithelium; test: Adult ovariectomized rat uterine C3 model; conditions: po, once daily for 2 days, with EE 0.08 mg/kg on day 2; for ED50: Rattus norvegicus, 48 h
Description: The third model for PR agonist activity was the adult ovariectomized rat uterine C3 model. This assay evaluates the ability of a progestin to block estrogen-induced C3 expression in the uterine epithelium.
Ovariectomized female, 60 day-old Sprague-Dawley rats were obtained from Harlan (Indianapolis, Ind.). Ovariectomies were performed by the supplier a minimum of 8 days prior tobefore treatment. The rats were randomized and placed in groups of 6. The animals were treated once daily for (2) two days orally by gavage (p.o.) in a volume of 0.5 mL. On the second day of treatment, the animals were also treated with EE (0.08 mg/kg body weight (BW)) orally by gavage. Approximately 24 hours after the final treatment, the animals were euthanized by CO2 asphyxiation. The uteri were then removed, stripped of remaining fat and mesentery, weighed, and snap-frozen on dry ice. Total RNA was isolated from the uteri using the Trizol Reagent (GibcoBRL) as described by the manufacturer. Real-time reverse transcription polymerase chain reaction (RT-PCR) as previously reported [Sampath D, et al., “Aberrant expression of Cyr61, a member of the CCN (CTGF/Cyr61/Cef10/NOVH) family, and dysregulation by 17b-estradiol and basic fibroblast growth factor in human uterine leiomyomas” J Clin Endocrinol Metab. 2001; 86:1707-1715] was used to quantitate complement C3 expression. Briefly, RNA samples were DNAse-I treated using a DNA-free kit (Ambion). A total of 50 ng of RNA was analyzed in triplicate using C3 specific primer pair (5′primer […] [SEQ ID NO: 1], 3]primer […] [SEQ ID NO: 2]) and customized probe (6FAM-[…]-TAMRA [SEQ ID NO: 3]). C3 messenger RNA (mRNA) levels were normalized to 18s 18S ribosomal RNA contained within each sample reaction using primers and probe supplied by PE Applied Biosystems.

[4] = po, 5 days, estradiol-primed immature rabbits, limited dose response studies
[5] = po, once daily for 7 days, ovariectomized rats

Compound	Rat Ovulation Inhibition Assay ED100 [1]	ED50 [2, 4] [mg/kg]	Potency in Clauberg assay relative to MPA (fold more potent) ([2]; versus MPA)	ED50 (progesterone receptor; [5]) [mg/kg]	Potency in decidualization relative to MPA (fold more potent) (progesterone receptor; versus MPA)	Potency in decidualization relative to TMG (fold more potent) (progesterone receptor; versus TMG) [fold]	ED50 [3] [mg/kg]	Rabbit Clauberg Assay estimated ED50 (AED50) [2, 4] [µg/kg]	Rat Decidual Assay ED50 (progesterone receptor; [5]) [mg/kg]	Rat C3 Assay ED50 [3] [µg/kg]
Cn1c(C#N)ccc1-c1ccc2c(c1)C(C)(C)OC(=S)N2 [NSP-989, 5-(4,4-Dimethyl-2-thioxo-1,4-dihydro-2H-benzo[d] [1,3]oxazin-6-yl)-1-methyl-1H-pyrrole-2-carbonitrile]	0.03 mg/kg	0.001	about 30 fold	0.01	approximately 40 fold	~100	0.0005			
C[C@H](O)C(=O)[C@@]1(C)CC[C@H]2[C@@H]3CCC4=CC(=O)CCC4=C3CC[C@@]21C [TMG, trimegestone]	1 mg/kg and 1.0 mg/kg							1	1.0	5
CC(=O)O[C@]1(C(C)=O)CC[C@H]2[C@@H]3C[C@H](C)C4=CC(=O)CC[C@]4(C)[C@H]3CC[C@@]21C [MPA, medroxyprogesterone acetate]	1 mg/kg and 1.0 mg/kg	0.03		0.4			0.03			
